The record followed here is patent publication US9545386B2, “Methods of treating infectious diseases” (SLIPPERY ROCK UNIVERSITY FOUNDATION, INC., priority 2007, dated 2017).

Data set [1] relates to Trypanosoma conorhini trypomastigotes. Description: In vitro antitrypanosomal bioassay, trypomastigote counts (Probit LC50/LC95). It is filed as cell-based. The settings on record: T. conorhini; for 24 hr LC95 ± 95% confidence intervals: 24 hr in vitro. On the procedure: In this study, 75 μl of Locke's nematode saline (L.N.S.) solution with approximately 1.0×10^5 trypomastigotes/ml of each organism were placed in 15 wells of a cell culture plate. For T. mega, T. conorhini and T. avium, stock concentrations of eryngial (1, 2, 3 and 4 mg/ml) with 0.04% (w/v) Triton X-100 were prepared in L.N.S. Triton X-100 acted as an emulsifier for eryngial. Triplicate samples of each eryngial concentration were prepared by adding 75 μl of the stock to the wells with trypomastigotes of each species. The number of trypanosomes in each well therefore approximated 5×10^4/ml, while final concentrations of eryngial in the wells were 0.5, 1.0, 1.5, and 2.0 mg/ml, respectively. Each sample also had 0.02% Trition X-100. The control samples had no eryngial. The number of trypomastigotes that were present in 20 μl sub-samples of each well was determined using a hemacytometer at 0, 24 and 48 hr. A count of the trypanosomes in each grid was recorded and the average number of organisms per milliliter was determined. The above procedure was repeated to determine the effect of eryngial on T. rangeli. However, the final concentration of eryngial, the test compound, ranged from 0.15 to 0.9 mg/ml.

Data set [2] deals with T. avium trypomastigotes. In words: Short-term behavioral study (swimming behavior and maneuverability). It is filed as cell-based, Trypanosoma avium. The settings on record: 75 μl eryngial (1%) and Triton X-100 (0.04%) added to 75 μl T. avium; observed at 15-minute intervals for 1 hr. As for the experimental part: A short-term behavioral study also was conducted by adding 75 μl of eryngial (1%) and Triton X-100 (0.04%) to 75 μl of L.N.S. with T. avium (1.0×10^5 trypomastigotes/ml). The swimming behavior and maneuverability of the organisms were observed microscopically in triplicate samples at 15-minute intervals for 1 hr. This was recorded with a digital video camera.

Data set [3] concerns Enterococcus faecalis. Description: Antibacterial MIC/MBC, 96 well broth dilution. It counts as cell-based. As to conditions: E. faecalis, 24 hr in vitro, 0.02% Triton X-100. As for the experimental part: (§1) Bacterial cultures were obtained from the American Type Culture Collection (ATCC), except for Streptococcus pyogenes, which was started from a Difco Bactrol disc. The other organisms were Enterococcus faecalis, Staphylococcus aureus, Escherichia coli, Salmonella typhimurium and Pseudomonas aeruginosa. Cultures were grown in Luria-Bertani (LB) broth. Fungi were obtained from Carolina Biological Supply Company (Aspergillus niger, Candida albicans and Cryptococcus neoformans); Presque Isle Cultures, Erie Pa. (Microsporum gypseum); or from ATCC (Penicillium marneffei). Fungal cultures were maintained in Sabouraud dextrose broth (SDB) or agar (SDA). All media components came from Difco.
(§2) Tests were done in flat-bottomed 96 well cell culture plates (Costar). All samples were done in duplicate. Eryngial was suspended in culture medium plus 0.04% Triton-X to make a 2% (20 mg/ml) suspension, which was passed through a 0.22 μm filter to make a uniform emulsion. Serial doubling dilutions of eryngial in culture medium plus 0.04% Triton-X were prepared, and 75 μl was added to each well. 75 μl of cell or spore suspensions in culture medium also were added to each well. The final concentration of Triton-X was 0.02%, and the final concentration of eryngial was 1% (10 mg/ml) at the highest concentration tested.
(§3) Dimethyl sulfoxide (DMSO) also was used as a solvent for eryngial. A solution of 12.5% eryngial in DMSO was the initial solution. Doubling dilutions were carried out in DMSO. The DMSO-eryngial solutions were diluted 100-fold into growth medium, resulting in a final concentration of 1% DMSO, and 0.125% (1,250 μg/ml) eryngial as the highest concentration tested.
(§4) Overnight bacterial cultures in LB medium were diluted into fresh LB to an OD600 of 0.02 to 0.03, and then diluted 1000-fold again in LB. […] Blank wells for each concentration of eryngial were prepared with plain culture medium added.
(§5) The 96 well plates were incubated at 37° for 24 hr (in a candle jar for S. pyogenes), and the OD630 was read on an EL800 universal microplate reader (Bio-Tek Instruments). Readings from duplicate wells were averaged, and readings from duplicate blank wells for each concentration of eryngial were subtracted to generate the final values. The minimum inhibitory concentration (MIC, μg/ml) was defined as the well with the highest dilution of eryngial in which no growth was observed.
(§6) To determine whether eryngial was merely inhibiting growth of the bacteria and fungi, or whether it also was having a killing effect, the minimum bactericidal concentrations (MBC, μg/ml) or minimum fungicidal concentrations (MFC, μg/ml) were determined. This was done by removing a 50 μl sample from a well after 24 hr (bacteria) or 96 hr (fungi) and diluting the samples in 5 ml of fresh culture medium. These tubes then were incubated at the appropriate temperature for 24-96 hr and observed for any signs of growth.
A general note: Broth dilution looks for growth in wells or tubes with falling amounts of substance.

The test system of data set [4] is Staphylococcus aureus. Description: Antibacterial MIC/MBC, 96 well broth dilution. It counts as cell-based. The settings on record: S. aureus, 24 hr in vitro, 0.02% Triton X-100. As for the experimental part:
as §1, §2, §3, §4, §5, §6

Data set [5] concerns Streptococcus pyogenes. Description: Antibacterial MIC/MBC, 96 well broth dilution. It counts as cell-based. As to conditions: S. pyogenes, 24 hr in vitro, DMSO as solvent. As for the experimental part: as §1, §2, §3, §4, §5, §6
Data set [6] has as its system Aspergillus niger. Description: Antifungal MIC/MFC, 96 well broth dilution. The settings on record: A. niger; MIC and MFC not determined. It is filed as cell-based. As for the experimental part:
as §1, §2, §3
(§7) The yeast form fungi, Candida albicans and Cryptococcus neoformans, were grown overnight in SDB. Cell density was determined by counting in a hemacytometer. Cells were diluted in fresh SDB to a density of 10^4/ml, and 75 μl, or 7.5×10^2 cells, was added to each well. The filamentous form fungi, Aspergillus niger, Microsporum gypseum and Penicillium marneffei, were grown on SDA until spores formed. The surface of the culture was rinsed vigorously with sterile distilled water to make a spore suspension, which was counted with a hemacytometer. The spores were diluted into SDB at 10^4/ml, and 75 μl, or 7.5×10^2 spores, were added to each well. The 96 well plates were incubated at room temperature in a humidified chamber for up to 96 hr, and culture growth was monitored microscopically. Growth was documented by photomicrographs at 24 hr intervals, and by determining OD630 in the microplate reader as for the bacterial cultures.
as §6

Data set [7] deals with Candida albicans. In words: Antifungal MIC/MFC, 96 well broth dilution. It counts as cell-based. The settings on record: C. albicans, 48-96 hr in vitro. As for the experimental part: as §1, §2, §3, §7, §6
Data set [8] deals with Cryptococcus neoformans. Description: Antifungal MIC/MFC, 96 well broth dilution. It counts as cell-based. The settings on record: C. neoformans, 48-96 hr in vitro. As for the experimental part:
as §1, §2, §3, §7, §6

Data set [9] relates to Microsporum gypseum. In words: Antifungal MIC/MFC, 96 well broth dilution. It counts as cell-based. As to conditions: Nannizzia gypsea, M. gypseum, 48-96 hr in vitro. On the procedure: as §1, §2, §3, §7, §6
Data set [10] has as its system Penicillium marneffei. In words: Antifungal MIC/MFC, 96 well broth dilution. As to conditions: Talaromyces marneffei, P. marneffei, 48-96 hr in vitro. It counts as cell-based. On the procedure:
as §1, §2, §3, §7, §6

As usually defined, the MIC is the least concentration at which growth counts as inhibited. High values mean weaker potency, low ones greater potency.

In brackets after ≈: the same amount, converted by molar mass.

Turning to `CCCCCCCCC/C=C/C=O` [Eryngial, trans-2-dodecenal], the “24 hr LC95 ± 95% confidence intervals” value in [1] is 2.91 (2.22-4.69) mg/ml; in data set [1] (listed as eryngial) it was 2.91 mg/mL. The “48 hr LC50 ± 95% confidence intervals” value in [1] (48 hr in vitro) is on record as 0.68 (0.62-0.75) mg/ml. For the same compound, the “48 hr LC95 ± 95% confidence intervals” value in [1] (48 hr in vitro) was 1.02 (0.91-1.20) mg/ml; in [1] (48 hr in vitro, listed as eryngial), 1.14 mg/mL. Further, in [2], the “swimming behavior and maneuverability of trypomastigotes” value is recorded as “movement was completely stopped”. Further, the MBC was 313 µg/mL (≈ 1720 µM) in data set [3]; 78 µg/mL (≈ 428 µM) in data set [4]; 156 µg/mL (≈ 856 µM) in data set [5]; 391 µg/mL (≈ 2140 µM) in data set [7] (table title says MFCs); 78 µg/mL (≈ 428 µM) in data set [8] (table title says MFCs); 39 µg/mL (≈ 214 µM) in data set [9] (table title says MFCs). This compound came in with an MBC in data set [10] (table title says MFCs) of 39 µg/mL (≈ 214 µM). For the same compound, the minimum inhibitory concentration (MIC) in data set [3] worked out at 313 µg/mL (≈ 1720 µM); in data set [4], 78 µg/mL (≈ 428 µM); in [5], 156 µg/mL (≈ 856 µM); in [7], 391 µg/mL (≈ 2140 µM); in data set [8] it was 78 µg/mL (≈ 428 µM); in data set [9] it was 39 µg/mL (≈ 214 µM). Further, the MIC in data set [10] was determined as 39 µg/mL (≈ 214 µM). In addition, the “growth in dilutions of the test compound” value in data set [6] is on record as “growth, albeit reduced, occurred in all dilutions”.
